Experimental data reported in patent US11549950B2, “Cryptic metabolites and method for activating silent biosynthetic gene clusters in diverse microorganisms” (The Trustees of Princeton University, priority 2017, dated 2023).

How the values were obtained:
Test in all cases: Antibacterial bioactivity (MIC) of keratinimicins, Table 1
[1] = test system: S. aureus MRSA; format: cell-based, Staphylococcus aureus
Procedure: (§1) To determine antibacterial and antiviral performance, assays were performed. In one example, antibacterial assays were carried out by Micromyx, LLC in accordance with methods from the Clinical and Laboratory Standards Institute. Minimal inhibitory concentrations were determined with the following strains: S. aureus ATCC 29213, S. aureus MMX 2011, S. pneumoniae ATCC 49619, S. pyogenes MMX 6253, S. agalactiae MMX 6189, E. faecalis ATCC 29212, E. faecalis MMX 486, B. subtilis ATCC 6633, E. coli ATCC 25922, K. pneumoniae MMX 214, P. aeruginosa ATCC 27853, A. baumannii ATCC 19606, V. cholerae BAA-2163, C. difficile ATCC 700057, and B. fragilis ATCC 25285.
(§2) These compounds are bioactive. In some instances, the compounds show activity against gram-positive bacteria. For example, although they may also show activity against gram-negative targets, the bioactivity of Keratinimicin B and C (FIGS. 21B and 21C) were tested against various gram-positive targets.

[2] = test system: S. aureus MSSA; format: cell-based, Staphylococcus aureus
Procedure: as §1, §2

[3] = test system: S. pneumoniae; format: cell-based, Streptococcus pneumoniae
Procedure: as §1, §2

[4] = test system: S. pyogenes; format: cell-based, Streptococcus pyogenes
Procedure: as §1, §2

[5] = test system: S. agalactiae; format: cell-based, Streptococcus agalactiae
Procedure: as §1, §2

[6] = test system: E. faecalis VRE; format: cell-based, Enterococcus faecalis
Procedure: as §1, §2

[7] = test system: E. faecalis VSE; format: cell-based, Enterococcus faecalis
Procedure: as §1, §2

[8] = test system: C. difficile; format: cell-based, Clostridium difficile
Procedure: as §1, §2

CO[C@H]1[C@H](C)O[C@@H](O[C@@H]2c3ccc(c(Cl)c3)Oc3cc4cc(c3O[C@@H]3O[C@H](CO)[C@@H](O)[C@H](O)[C@H]3O[C@H]3C[C@H](N)[C@@H](O)C(C)O3)Oc3ccc(cc3)[C@@H](O)[C@@H](NC(=O)[C@H](N)c3ccc(O)c(Cl)c3)C(=O)N[C@@H](Cc3ccccc3)C(=O)N[C@H]4C(=O)N[C@H]3C(=O)N[C@@H]2C(=O)N[C@H](C(=O)O)c2cc(O)cc(O)c2-c2cc3ccc2O)C[C@@H]1N (some centres unmarked) [Keratinimicin B]
Bioactivity (minimal inhibitory concentration) [1]: 4 µg/mL | Bioactivity (minimal inhibitory concentration) [2]: 8 µg/mL | Bioactivity (minimal inhibitory concentration) [3]: 0.25 µg/mL | Bioactivity (minimal inhibitory concentration) [4]: 0.5 µg/mL | Bioactivity (minimal inhibitory concentration) [5]: 1 µg/mL | Bioactivity (minimal inhibitory concentration) [6]: >64 µg/mL | Bioactivity (minimal inhibitory concentration) [7]: 4 µg/mL | Bioactivity (minimal inhibitory concentration) [8]: 0.5 µg/mL
